Experiments:
mRNA [1] = assay: mRNA synthesis by in vitro transcription (co-transcriptional capping), final product mass; type: biochemical; conditions: obtained from 20 μL mRNA synthesis reaction system; T7 RNA Polymerase; cap analog 4 mM; 37 °C, 2 to 3 hours
Experimental: (§1) 1) The plasmids were linearized and the DNA templates were purified.
(§2) 2) The mRNA was synthesized by in vitro transcription, using 11 cap structures of the present disclosure, positive control CleanCap®AG (3′OMe) (Trilink, N-7413), negative control (uncapped mRNA) and blank control (DNase/RNase-Free water), respectively.
(§3) The reaction was carried out at 37 °C for 2 to 3 hours. TURBO DNase digestion was carried out for 15 minutes. The mRNA was precipitated by LiC for 30 min or more or overnight, and the mRNA precipitate was washed with 75% ethanol, dried briefly to evaporate the ethanol, and the mRNA was redissolved with RNase-Free water.
3) The transcription product was purified, and the reaction yield was calculated to provide the test results of some compounds, as shown in Table 2.

mRNA [2] = assay: Capping efficiency of mRNA by LC-MS; type: biochemical; conditions: cap analog 4 mM in in vitro transcription, RNase H cleaved 5′ fragment
Experimental: as §1, §2, §3
Gradient annealing was performed in a PCR instrument: […]
5) Magnetic beads were pre-treated and bound to probes.
100 μL of magnetic beads were taken and placed on a magnetic stand. The storage solution was discarded, and 100 μL of 1*BW solution was added thereto. After mixing well, the mixture was placed on the magnetic stand, and the supernatant was discarded. The wash was carried out three times in the same way. 100 μL of wash A buffer was added thereto. After mixing well, the mixture was placed on the magnetic stand, and the supernatant was discarded. The wash was carried out three times in the same way. 100 μL of wash B buffer was added thereto. After mixing well, the mixture was placed on the magnetic stand, and the supernatant was discarded. The wash was carried out three times in the same way. 120 μL of the sample was added to the magnetic bead solution and incubated for 30 min at room temperature with gentle mixing while incubating.
6) The mRNA was cut to obtain the 5′ single-stranded sequence of mRNA bound to probes.
20 μL of RNase H (5 U/μL) was added thereto, incubated at 37 °C for 3 hours, and mixed well every half hour. 100 μL of 1*BW solution was added thereto. After mixing well, the mixture was placed on the magnetic stand, and the supernatant was discarded. The wash was carried out three times in the same way. 100 μL of deionized water solution was added thereto. After mixing well, the mixture was placed on the magnetic stand, and the supernatant was discarded. The wash was carried out three times in the same way. 100 μL of 75% methanol was added thereto at 80 °C, then the mixture was heated to 80 °C on a heating plate and held for 3 min, placed on the magnetic stand, and the supernatant was aspirated. The sample was dried at room temperature for 45 min to 10 μL using an evaporative centrifuge and then resuspended in 50 μL of 100 μM EDTA/1% MeOH for LC-MS analysis.
LC-MS was used to analyze the capping efficiency of mRNA synthesized by analogues with different cap structures. The capping efficiency results of some compounds in the detection results are now provided.

HEK293T cells = assay: Expression efficiency of capped luciferase mRNAs in HEK293T cells; type: cell-based; conditions: 6 h after transfection of capped luciferase mRNA into HEK293T cells; ratio to N-7413 (= 1)
Experimental: 2. Evaluation of Expression Efficiency of Different Capped Luciferase mRNAs in HEK293T Cells
1) HNE293T cells were cultured in DMEM medium containing 10% FBS and penicillin/streptomycin at 37 °C and 5% CO2.
2) The cultured HEK293T cells were spread in a 96-well plate with 1.25×10^4 cells per well.
3) After the cells completely adhered to the wall, 0.5 μg of a mixture of mRNA sample and Polyplus jetMESSENGER was added to each well of cells, and cultured at 37 °C and 5% CO2 for 6 hours.
4) The growth medium was removed from the cells to be tested and the cells were rinsed with PBS. After centrifugation to remove PBS, 50 μL of 1× lysis buffer was added thereto, and cells and all liquid were transferred to a microcentrifuge tube, and then centrifuged at 12000×g and 4 °C for 2 min.
5) The supernatant was transferred to a new tube. Fluorescence readings were detected using the ONE-Glo Luciferase Assay System Kit.
3. All compounds, N-7413, negative control and blank control were tested under the same conditions, and some experimental results in the test results are shown in Table 5.
The relative fluorescence reading results (6 h) after transfection of capped mRNA into 293T cells are now provided, as shown in Table 5. It can be seen from the FIGURE that the mRNA capped by the compound of the present disclosure has a high expression level, and some cap structures can enable higher expression efficiency of mRNA compared to N-7413.

SMILES | Final product mass (mRNA [1]) [µg] | Capping efficiency (mRNA [2]) | Relative fluorescence reading (HEK293T cells)
CO[C@@H]1[C@H](OP(=O)(O)OC[C@H]2O[C@@H](n3cnc4c(=O)[nH]c(N)nc43)[C@H](O)[C@@H]2O)[C@@H](COP(=O)(O)OP(=O)([O-])OP(=O)(O)OC[C@H]2O[C@@H](n3c[n+](C)c4c(=O)[nH]c(N)nc43)[C@H](O)[C@@H]2C(=O)N(C)C)O[C@H]1n1cnc2c(N)ncnc21 [Compound 193] | 105 | A (100% > A ≥ 95%) | 1.64
CO[C@@H]1[C@H](OP(=O)(O)OC[C@H]2O[C@@H](n3cnc4c(=O)[nH]c(N)nc43)[C@H](O)[C@@H]2O)[C@@H](COP(=O)(O)OP(=O)(O)OP(=O)(O)OC[C@H]2O[C@@H](n3c[n+](C)c4c(=O)[nH]c(N)nc43)[C@H](O)[C@@H]2NC(=O)C(C)(C)C)O[C@H]1n1cnc2c(N)ncnc21 [Compound 722] | 103 | – | 1.74
CCC(=O)N[C@H]1[C@@H](O)[C@H](n2c[n+](C)c3c(=O)[nH]c(N)nc32)O[C@@H]1COP(=O)(O)OP(=O)(O)OP(=O)(O)OC[C@H]1O[C@@H](n2cnc3c(N)ncnc32)[C@H](OC)[C@@H]1OP(=O)(O)OC[C@H]1O[C@@H](n2cnc3c(=O)[nH]c(N)nc32)[C@H](O)[C@@H]1O [Compound 291] | 106 | – | 1.60
CO[C@@H]1[C@H](OP(=O)(O)OC[C@H]2O[C@@H](n3cnc4c(=O)[nH]c(N)nc43)[C@H](O)[C@@H]2O)[C@@H](COP(=O)(O)OP(=O)(O)OP(=O)(O)OC[C@H]2O[C@@H](n3c[n+](C)c4c(=O)[nH]c(N)nc43)[C@H](O)[C@@H]2NC(=O)C(C)C)O[C@H]1n1cnc2c(N)ncnc21 [Compound 293] | 103 | – | 1.68
CO[C@@H]1[C@H](CC(=O)NC[C@H]2O[C@@H](n3cnc4c(=O)[nH]c(N)nc43)[C@H](O)[C@@H]2O)[C@@H](COP(=O)(O)OP(=O)(O)OP(=O)(O)OC[C@H]2O[C@@H](n3c[n+](C)c4c(=O)[nH]c(N)nc43)[C@H](O)[C@@H]2C)O[C@H]1n1cnc2c(N)ncnc21 [Compound 59] | 91 | – | 0.71
CNC(=O)[C@H]1[C@@H](O)[C@H](n2c[n+](C)c3c(=O)[nH]c(N)nc32)O[C@@H]1COP(=O)(O)OP(=O)(O)OP(=O)(O)OC[C@H]1O[C@@H](n2cnc3c(N)ncnc32)[C@H](OC)[C@@H]1OP(=O)(O)OC[C@H]1O[C@@H](n2cnc3c(=O)[nH]c(N)nc32)[C@H](O)[C@@H]1O [Compound 191] | 100 | – | 1.68
CCC[C@H]1[C@@H](O)[C@H](n2c[n+](C)c3c(=O)[nH]c(N)nc32)O[C@@H]1COP(=O)(O)OP(=O)(O)OP(=O)(O)OC[C@H]1O[C@@H](n2cnc3c(N)ncnc32)[C@H](OC)[C@@H]1OP(=O)(O)OC[C@H]1O[C@@H](n2cnc3c(=O)[nH]c(N)nc32)[C@H](O)[C@@H]1O.[Na+] [Compound 5] | 117 | A (100% > A ≥ 95%) | 1.85
C=CC[n+]1cn([C@@H]2O[C@H](COP(=O)(O)OP(=O)(O)OP(=O)(O)OC[C@H]3O[C@@H](n4cnc5c(N)ncnc54)[C@H](OC)[C@@H]3OP(=O)(O)OC[C@H]3O[C@@H](n4cnc5c(=O)[nH]c(N)nc54)[C@H](O)[C@@H]3O)[C@@H](CC)[C@H]2O)c2nc(N)[nH]c(=O)c21 [Compound 716] | 103 | – | 1.50
C/C=C/C[C@H]1[C@@H](O)[C@H](n2c[n+](C)c3c(=O)[nH]c(N)nc32)O[C@@H]1COP(=O)(O)OP(=O)(O)OP(=O)(O)OC[C@H]1O[C@@H](n2cnc3c(N)ncnc32)[C@H](OC)[C@@H]1OP(=O)([O-])OC[C@H]1O[C@@H](n2cnc3c(=O)[nH]c(N)nc32)[C@H](O)[C@@H]1O [Compound 711] | 106 | – | 1.86
CO[C@@H]1[C@H](OP(=O)(O)OC[C@H]2O[C@@H](n3cnc4c(=O)[nH]c(N)nc43)[C@H](O)[C@@H]2O)[C@@H](COP(=O)(O)OP(=O)(O)OP(=O)(O)OC[C@H]2O[C@@H](n3c[n+](C)c4c(=O)[nH]c(N)nc43)[C@H](O)[C@@H]2CCF)O[C@H]1n1cnc2c(N)ncnc21 [Compound 19] | 137 | A (100% > A ≥ 95%) | 1.52
CO[C@@H]1[C@H](OP(=O)(O)OC[C@H]2O[C@@H](n3cnc4c(=O)[nH]c(N)nc43)[C@H](O)[C@@H]2O)[C@@H](COP(=O)(O)OP(=O)(O)CP(=O)(O)OC[C@H]2O[C@@H](n3c[n+](C)c4c(=O)[nH]c(N)nc43)[C@H](O)[C@@H]2CCF)O[C@H]1n1cnc2c(N)ncnc21 [Compound 103] | 94 | – | 1.45
CO[C@@H]1[C@H](OP(=O)([O-])OC[C@H]2O[C@@H](n3cnc4c(=O)[nH]c(N)nc43)[C@H](O)[C@@H]2O)[C@@H](COP(=O)(O)OP(=O)(O)OP(=O)(O)OC[C@H]2O[C@@H](n3c[n+](C)c4c(=O)[nH]c(N)nc43)[C@H](O)[C@@H]2OC)O[C@H]1n1cnc2c(N)ncnc21 [Compound N-7413, reference compound] | 114 | – | 1.00
CO[C@@H]1[C@H](OP(=O)(O)OC[C@H]2O[C@@H](n3cnc4c(=O)[nH]c(N)nc43)[C@H](O)[C@@H]2O)[C@@H](COP(=O)(O)OP(=O)(O)OP(=O)(O)OC[C@H]2O[C@@H](n3c[n+](C)c4c(=O)[nH]c(N)nc43)[C@H](O)[C@@H]2NC(=O)c2ccccc2)O[C@H]1n1cnc2c(N)ncnc21 [Compound 297] | 110 | – | 1.79
CCC[C@H]1[C@@H](O)[C@H](n2c[n+](C)c3c(=O)[nH]c(N)nc32)O[C@@H]1COP(=O)(O)OP(=O)(O)OP(=O)(O)OC[C@H]1O[C@@H](n2cnc3c(NC)ncnc32)[C@H](OC)[C@@H]1OP(=O)(O)OC[C@H]1O[C@@H](n2cnc3c(=O)[nH]c(N)nc32)[C@H](O)[C@@H]1O [Compound 719] | 97 | – | 1.69
CO[C@@H]1[C@H](OP(=O)(O)OC[C@H]2O[C@@H](n3cnc4c(=O)[nH]c(N)nc43)[C@H](O)[C@@H]2O)[C@@H](COP(=O)(O)OP(=O)(O)OP(=O)(O)OC[C@H]2O[C@@H](n3c[n+](C)c4c(=O)[nH]c(N)nc43)[C@H](O)[C@@H]2N=[N+]=[N-])O[C@H]1n1cnc2c(N)ncnc21 [Compound 399] | 117 | – | 1.51
CC[C@H]1[C@@H](O)[C@H](n2c[n+](C)c3c(=O)[nH]c(N)nc32)O[C@@H]1COP(=O)(O)OP(O)(=S)OP(=O)(O)OC[C@H]1O[C@@H](n2cnc3c(N)ncnc32)[C@H](OC)[C@@H]1OP(=O)([O-])OC[C@H]1O[C@@H](n2cnc3c(=O)[nH]c(N)nc32)[C@H](O)[C@@H]1O (stereo partly shown) [Compound 718] | 106 | – | 1.66
CCCCCCNC(=O)[C@H]1[C@@H](O)[C@H](n2c[n+](C)c3c(=O)[nH]c(N)nc32)O[C@@H]1COP(=O)(O)OP(=O)(O)OP(=O)(O)OC[C@H]1O[C@@H](n2cnc3c(N)ncnc32)[C@H](OC)[C@@H]1OP(=O)(O)OC[C@H]1O[C@@H](n2cnc3c(=O)[nH]c(N)nc32)[C@H](O)[C@@H]1O [Compound 205] | 98 | – | 1.52

Source: US20260365690A1, “COMPOUND FOR RNA CAPPING AND USE THEREOF” (GUANGZHOU HENOVCOM BIOSCIENCE CO., LTD., priority 2022, published 2026)
